Experiment [1] has as its target Beta-2 adrenergic receptor (Homo sapiens, UniProt P07550). Kind of experiment: ADRB2 activation measured by internalization – cell-based, FAP fluorogen, flow cytometry, cherry pick 1, dose response (AID 588763). The format is functional.
Experiment [2] has as its system Streptococcus sp. 'group A'. Kind of experiment: Streptococcus pyogenes SK(-)GAS viability under kanamycin – luminescence, BacTiterGlo, confirmation, counter-screen for streptokinase expression inhibitor project, dose response (AID 1900). It counts as functional, organism-based.
Experiment [3] addresses T1, Streptokinase A (Streptococcus pyogenes serotype M1, UniProt P10520).
T1 sequence (P10520 whole entry): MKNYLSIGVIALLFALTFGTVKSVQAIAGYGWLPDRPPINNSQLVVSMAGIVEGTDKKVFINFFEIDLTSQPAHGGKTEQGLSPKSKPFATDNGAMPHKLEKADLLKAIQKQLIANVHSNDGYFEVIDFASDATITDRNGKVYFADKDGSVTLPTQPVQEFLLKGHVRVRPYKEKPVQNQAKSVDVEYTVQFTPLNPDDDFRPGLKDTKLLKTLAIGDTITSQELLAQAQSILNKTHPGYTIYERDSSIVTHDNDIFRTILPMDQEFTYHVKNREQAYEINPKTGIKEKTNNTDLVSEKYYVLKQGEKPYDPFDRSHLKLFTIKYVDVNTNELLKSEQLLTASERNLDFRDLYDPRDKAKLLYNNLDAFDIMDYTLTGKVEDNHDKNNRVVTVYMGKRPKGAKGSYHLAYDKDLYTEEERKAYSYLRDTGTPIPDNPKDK
Kind of experiment: viability-normalized secreted streptokinase activity reduction – plasminogen activation absorbance, OD405, dose response (AID 1914).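 Also: secreted streptokinase activity via plasminogen activation per viability signal from cell pellet.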 It counts as functional, Streptococcus pyogenes M1 GAS.

In experiment [4] the test system is Streptococcus. Put plainly: GAS UMAA2166 growth inhibition – luminescence, BacTiterGlo, counter-screen for streptokinase expression inhibitor project, dose response (AID 1915).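 Also: potency for reduction of bacterial viability or growth.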 It counts as functional, organism-based. (In general: A counterscreen serves to expose hits that act by an unwanted route or on another target.)
Experiment [5] is described as follows: Luminescence Cell-Based Dose Retest to Confirm Inhibitors of Cancer Stem Cells. [Related pubchem assays (depositor defined):AID2717, AID2721]. It counts as functional. To be noted: Homo sapiens.
The target of experiment [6] is Cysteine protease ATG4B (Homo sapiens, UniProt Q9Y4P1). The format is functional.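 Also: Fluorescence-based dose-response confirmation assay measuring inhibition of ATG4B activity.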
Experiment [7] addresses Phospholipase A2 (Homo sapiens, UniProt P04054). The format is functional.
The target in experiment [8] is T2, Corticotropin-releasing factor receptor 2/Corticotropin-releasing factor-binding protein (Homo sapiens, UniProt P24387+Q13324).
T2 sequence (Q13324 whole entry): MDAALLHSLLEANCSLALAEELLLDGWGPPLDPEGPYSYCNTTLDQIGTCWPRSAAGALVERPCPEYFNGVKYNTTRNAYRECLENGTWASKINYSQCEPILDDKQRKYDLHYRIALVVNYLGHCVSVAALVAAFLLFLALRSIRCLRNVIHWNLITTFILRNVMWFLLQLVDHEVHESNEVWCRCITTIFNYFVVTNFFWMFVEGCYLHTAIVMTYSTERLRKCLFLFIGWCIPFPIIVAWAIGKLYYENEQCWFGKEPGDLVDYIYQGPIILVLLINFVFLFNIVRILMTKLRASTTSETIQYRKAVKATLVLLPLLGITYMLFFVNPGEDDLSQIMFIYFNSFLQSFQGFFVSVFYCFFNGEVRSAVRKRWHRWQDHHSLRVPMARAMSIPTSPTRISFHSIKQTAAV
T2 sequence (P24387 whole entry): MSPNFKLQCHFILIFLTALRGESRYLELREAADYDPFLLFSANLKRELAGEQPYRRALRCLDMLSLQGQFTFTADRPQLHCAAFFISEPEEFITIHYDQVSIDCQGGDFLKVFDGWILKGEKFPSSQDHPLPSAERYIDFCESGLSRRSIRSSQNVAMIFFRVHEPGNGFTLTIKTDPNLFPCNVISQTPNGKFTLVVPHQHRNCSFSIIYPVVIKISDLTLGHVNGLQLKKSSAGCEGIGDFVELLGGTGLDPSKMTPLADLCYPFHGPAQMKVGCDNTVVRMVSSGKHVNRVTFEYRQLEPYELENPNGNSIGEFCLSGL
Put plainly: activators of CRF receptor 2 with binding protein – uHTS hits, confirmation (AID 602473). The format is functional. As to conditions: read-out: EC50_Mean.

Experiment [9] has as its system HEK293. Put plainly: HEK293T cell viability loss, resazurin readout – resazurin fluorescence, cytotoxicity control for NF-kB activator project, SAR follow-up (AID 493251). It counts as functional, cell-based. To be noted: Homo sapiens. (Resazurin is reduced to fluorescent resorufin, in cell work by metabolically active cells.)
Experiment [10] concerns the target T3, Voltage-gated N-type calcium channel alpha-1B subunit/Amyloid beta A4 precursor protein-binding family A member 1 (Homo sapiens, UniProt Q00975+Q02410). It counts as protein assay.
Experiment [11] deals with T3, Voltage-gated N-type calcium channel alpha-1B subunit/Amyloid beta A4 precursor protein-binding family A member 1. The format is protein assay. The source holds these as a separate data set.
In experiment [12] the target is T4, Bifunctional protein GlmU (Mycobacterium tuberculosis, UniProt P9WMN3).
T4 sequence (P9WMN3 whole entry): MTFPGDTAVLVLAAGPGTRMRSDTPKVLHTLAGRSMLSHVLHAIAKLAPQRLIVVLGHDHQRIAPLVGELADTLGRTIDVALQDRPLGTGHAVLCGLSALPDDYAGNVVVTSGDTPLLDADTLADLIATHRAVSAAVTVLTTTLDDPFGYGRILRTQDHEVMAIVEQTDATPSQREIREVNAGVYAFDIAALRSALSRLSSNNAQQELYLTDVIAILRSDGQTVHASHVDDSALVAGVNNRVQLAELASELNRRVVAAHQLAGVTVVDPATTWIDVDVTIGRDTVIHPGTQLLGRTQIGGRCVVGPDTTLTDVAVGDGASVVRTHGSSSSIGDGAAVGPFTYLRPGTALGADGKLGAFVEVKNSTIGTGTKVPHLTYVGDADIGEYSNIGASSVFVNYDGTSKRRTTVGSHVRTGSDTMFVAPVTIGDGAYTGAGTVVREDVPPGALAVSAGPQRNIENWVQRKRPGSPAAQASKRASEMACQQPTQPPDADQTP
Kind of experiment: Inhibitors of Mycobacterial Glucosamine-1-phosphate acetyl transferase (GlmU). Secondary screen. Also on record: species or system Mycobacterium tuberculosis H37Rv.

In experiment [13] the target is Beta-adrenergic receptor kinase 1 (Homo sapiens, UniProt P25098). Put plainly: aptamer displacement from bead-bound GRK2 – biochemical, cherry pick 1, bead flow cytometry, dose response (AID 504500).
Experiment [14] concerns HEK293. Kind of experiment: EBV LMP1 TES2 canonical NF-kB signalling blockers – cell-based, HEK293, luciferase, cherry-pick, dose response (AID 588343). It counts as functional. To be noted: Homo sapiens.
Experiment [15] concerns the target T5, Caspase-6 (Homo sapiens, UniProt P55212).
T5 sequence (P55212 whole entry): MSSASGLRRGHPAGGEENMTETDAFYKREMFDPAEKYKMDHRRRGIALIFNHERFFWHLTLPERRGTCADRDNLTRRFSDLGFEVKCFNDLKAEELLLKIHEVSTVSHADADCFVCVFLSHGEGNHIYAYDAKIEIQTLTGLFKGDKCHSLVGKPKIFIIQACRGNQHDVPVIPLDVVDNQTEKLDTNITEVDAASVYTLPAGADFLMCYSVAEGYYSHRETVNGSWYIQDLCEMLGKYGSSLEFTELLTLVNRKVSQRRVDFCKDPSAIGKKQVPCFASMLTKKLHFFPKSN
Put plainly: inhibition of CASP6 peptide cleavage – biochemical, VEID-R110 fluorescence, cherry-pick, dose response (AID 720632).

Experiment [16] has as its target Histone-lysine N-methyltransferase NSD2 (Homo sapiens, UniProt O96028). It counts as biochemical.
A short description of experiment [17]: blockers of bursicon-stimulated LGR2 cAMP reporter – cell-based, HEK293, CRE-luciferase reporter, cherry pick, set 2, dose response (AID 743343).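 Also: transfected cells were stimulated with diluted bursicon conditioned medium after compound addition.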 The format is functional. A general note: Reporter assays use an easily measured gene product as a stand-in for the process of interest.
Experiment [18] in a line: blockade of melanocortin 4 receptor signaling – cell-based, plate reader, cherry pick, counter-screen for LGR2 antagonist project, dose response (AID 743444).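 Also: transfected HEK 293 cells stimulated with alpha-MSH peptide; potency of inhibitors of the alpha-MSH evoked signal.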 It counts as functional.

Calls of active or inactive are those of the source.

Broadly, the AC50 is the concentration at which the activity in the assay is half-maximal. Usually IC50 stands for the concentration that inhibits the measured activity by half.

T3 sequence (Q00975 whole entry): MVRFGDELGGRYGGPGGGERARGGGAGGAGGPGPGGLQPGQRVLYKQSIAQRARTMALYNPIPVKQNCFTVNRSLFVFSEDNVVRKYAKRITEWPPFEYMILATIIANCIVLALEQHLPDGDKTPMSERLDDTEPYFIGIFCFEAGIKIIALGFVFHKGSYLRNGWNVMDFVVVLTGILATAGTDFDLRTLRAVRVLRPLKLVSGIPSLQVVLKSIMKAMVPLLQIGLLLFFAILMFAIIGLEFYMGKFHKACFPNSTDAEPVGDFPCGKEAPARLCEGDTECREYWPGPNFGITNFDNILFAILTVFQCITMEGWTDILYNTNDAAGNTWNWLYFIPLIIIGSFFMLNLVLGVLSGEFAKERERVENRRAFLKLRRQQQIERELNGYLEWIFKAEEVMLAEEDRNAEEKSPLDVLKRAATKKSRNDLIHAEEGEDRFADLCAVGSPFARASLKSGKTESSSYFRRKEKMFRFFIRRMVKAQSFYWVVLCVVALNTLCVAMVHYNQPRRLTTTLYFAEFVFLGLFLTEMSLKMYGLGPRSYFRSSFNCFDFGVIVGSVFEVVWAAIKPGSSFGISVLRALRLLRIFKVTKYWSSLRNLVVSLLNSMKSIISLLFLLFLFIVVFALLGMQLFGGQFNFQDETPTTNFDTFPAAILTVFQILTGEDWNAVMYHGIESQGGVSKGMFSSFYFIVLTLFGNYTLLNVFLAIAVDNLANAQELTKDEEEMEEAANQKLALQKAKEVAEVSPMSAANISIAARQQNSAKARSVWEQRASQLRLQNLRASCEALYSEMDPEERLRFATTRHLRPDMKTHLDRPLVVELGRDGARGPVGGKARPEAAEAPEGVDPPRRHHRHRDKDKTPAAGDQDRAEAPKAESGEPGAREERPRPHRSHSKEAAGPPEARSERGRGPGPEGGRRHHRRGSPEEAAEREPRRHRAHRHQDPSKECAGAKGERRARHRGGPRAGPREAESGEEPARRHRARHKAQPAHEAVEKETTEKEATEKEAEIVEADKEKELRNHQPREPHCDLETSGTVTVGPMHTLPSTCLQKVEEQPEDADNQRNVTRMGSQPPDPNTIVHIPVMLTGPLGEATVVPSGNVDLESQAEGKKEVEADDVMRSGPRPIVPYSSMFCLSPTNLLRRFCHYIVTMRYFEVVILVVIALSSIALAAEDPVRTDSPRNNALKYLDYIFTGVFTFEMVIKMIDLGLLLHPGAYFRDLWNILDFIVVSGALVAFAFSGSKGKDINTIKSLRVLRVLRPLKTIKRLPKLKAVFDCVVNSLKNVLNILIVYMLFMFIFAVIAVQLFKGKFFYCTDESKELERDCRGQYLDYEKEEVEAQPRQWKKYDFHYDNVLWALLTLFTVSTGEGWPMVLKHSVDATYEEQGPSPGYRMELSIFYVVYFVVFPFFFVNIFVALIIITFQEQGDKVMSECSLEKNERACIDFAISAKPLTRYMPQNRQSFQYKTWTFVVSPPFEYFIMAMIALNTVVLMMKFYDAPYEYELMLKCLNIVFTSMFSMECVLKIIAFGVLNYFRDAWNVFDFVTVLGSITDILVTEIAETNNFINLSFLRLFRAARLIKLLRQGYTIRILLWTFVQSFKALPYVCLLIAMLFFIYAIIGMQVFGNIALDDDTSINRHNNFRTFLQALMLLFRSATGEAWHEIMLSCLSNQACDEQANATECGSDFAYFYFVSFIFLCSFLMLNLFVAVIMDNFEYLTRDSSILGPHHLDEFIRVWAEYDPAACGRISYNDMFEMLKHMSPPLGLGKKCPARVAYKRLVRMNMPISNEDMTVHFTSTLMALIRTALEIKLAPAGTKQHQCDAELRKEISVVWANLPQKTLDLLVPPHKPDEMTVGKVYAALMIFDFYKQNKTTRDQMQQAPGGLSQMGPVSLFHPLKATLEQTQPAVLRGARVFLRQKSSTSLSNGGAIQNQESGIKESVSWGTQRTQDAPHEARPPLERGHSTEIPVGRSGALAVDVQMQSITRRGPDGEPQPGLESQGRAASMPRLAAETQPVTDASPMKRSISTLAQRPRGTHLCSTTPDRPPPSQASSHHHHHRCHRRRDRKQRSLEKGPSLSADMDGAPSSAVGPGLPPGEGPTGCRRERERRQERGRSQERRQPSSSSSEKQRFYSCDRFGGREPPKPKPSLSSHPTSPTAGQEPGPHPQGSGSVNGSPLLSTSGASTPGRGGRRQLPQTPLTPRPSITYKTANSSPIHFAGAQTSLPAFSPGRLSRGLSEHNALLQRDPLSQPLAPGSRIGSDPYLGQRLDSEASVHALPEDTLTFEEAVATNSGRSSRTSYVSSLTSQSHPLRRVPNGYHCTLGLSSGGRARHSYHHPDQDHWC
T3 sequence (Q02410 whole entry): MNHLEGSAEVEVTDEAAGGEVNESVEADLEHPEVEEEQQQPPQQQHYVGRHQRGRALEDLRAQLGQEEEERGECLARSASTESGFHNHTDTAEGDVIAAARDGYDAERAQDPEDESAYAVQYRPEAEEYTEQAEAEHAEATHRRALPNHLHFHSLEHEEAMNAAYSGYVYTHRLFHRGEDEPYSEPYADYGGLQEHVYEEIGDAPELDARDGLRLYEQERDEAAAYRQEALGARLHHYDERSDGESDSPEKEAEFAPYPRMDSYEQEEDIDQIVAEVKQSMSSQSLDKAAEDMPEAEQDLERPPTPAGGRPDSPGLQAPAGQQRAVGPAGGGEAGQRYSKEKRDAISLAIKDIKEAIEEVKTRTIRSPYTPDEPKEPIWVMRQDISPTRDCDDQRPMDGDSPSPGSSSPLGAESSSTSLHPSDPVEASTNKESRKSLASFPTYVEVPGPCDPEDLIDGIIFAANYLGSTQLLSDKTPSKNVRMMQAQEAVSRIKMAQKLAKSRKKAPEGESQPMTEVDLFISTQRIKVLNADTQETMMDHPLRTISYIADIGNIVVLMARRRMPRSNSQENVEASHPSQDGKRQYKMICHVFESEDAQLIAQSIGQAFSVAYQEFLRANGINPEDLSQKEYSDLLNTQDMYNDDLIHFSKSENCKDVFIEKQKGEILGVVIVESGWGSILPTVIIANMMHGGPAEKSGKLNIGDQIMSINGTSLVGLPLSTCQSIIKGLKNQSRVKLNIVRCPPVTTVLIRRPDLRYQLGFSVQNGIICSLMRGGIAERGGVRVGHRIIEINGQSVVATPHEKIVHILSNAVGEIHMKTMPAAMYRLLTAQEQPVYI
Beta-adrenergic receptor kinase 1, sequence (P25098 whole entry): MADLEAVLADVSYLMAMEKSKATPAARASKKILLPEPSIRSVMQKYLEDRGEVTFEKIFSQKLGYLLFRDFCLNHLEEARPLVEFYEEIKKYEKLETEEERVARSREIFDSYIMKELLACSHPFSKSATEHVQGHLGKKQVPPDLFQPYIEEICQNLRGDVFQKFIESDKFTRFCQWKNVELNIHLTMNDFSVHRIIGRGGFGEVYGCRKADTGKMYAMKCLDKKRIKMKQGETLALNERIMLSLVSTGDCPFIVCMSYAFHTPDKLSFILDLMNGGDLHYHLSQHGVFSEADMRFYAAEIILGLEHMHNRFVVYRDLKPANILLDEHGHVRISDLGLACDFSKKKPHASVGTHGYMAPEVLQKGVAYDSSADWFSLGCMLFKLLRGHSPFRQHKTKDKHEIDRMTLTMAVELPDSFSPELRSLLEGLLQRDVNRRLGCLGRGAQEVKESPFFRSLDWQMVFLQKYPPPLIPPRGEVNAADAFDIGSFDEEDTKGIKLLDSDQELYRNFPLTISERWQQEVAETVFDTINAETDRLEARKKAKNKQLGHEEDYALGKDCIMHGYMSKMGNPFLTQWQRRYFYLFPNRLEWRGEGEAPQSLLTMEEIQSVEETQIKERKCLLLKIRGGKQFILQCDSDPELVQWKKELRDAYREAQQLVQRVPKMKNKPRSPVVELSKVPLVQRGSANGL
Cysteine protease ATG4B, sequence (Q9Y4P1 whole entry): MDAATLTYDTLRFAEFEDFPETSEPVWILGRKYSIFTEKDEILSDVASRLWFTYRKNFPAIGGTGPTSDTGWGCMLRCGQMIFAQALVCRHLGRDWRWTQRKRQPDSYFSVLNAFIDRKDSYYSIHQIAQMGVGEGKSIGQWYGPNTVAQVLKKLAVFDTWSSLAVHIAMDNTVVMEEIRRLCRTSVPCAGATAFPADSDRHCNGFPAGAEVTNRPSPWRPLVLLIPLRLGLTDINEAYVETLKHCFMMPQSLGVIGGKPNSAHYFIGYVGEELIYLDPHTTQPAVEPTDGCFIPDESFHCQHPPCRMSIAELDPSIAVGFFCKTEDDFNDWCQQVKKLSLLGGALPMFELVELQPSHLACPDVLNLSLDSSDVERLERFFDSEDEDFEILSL
Phospholipase A2, sequence (P04054 whole entry): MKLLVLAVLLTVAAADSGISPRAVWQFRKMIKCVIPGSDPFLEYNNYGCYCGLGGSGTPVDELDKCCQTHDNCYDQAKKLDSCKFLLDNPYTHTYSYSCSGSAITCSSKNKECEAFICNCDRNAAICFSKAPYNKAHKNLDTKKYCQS
Beta-2 adrenergic receptor, sequence (P07550 whole entry): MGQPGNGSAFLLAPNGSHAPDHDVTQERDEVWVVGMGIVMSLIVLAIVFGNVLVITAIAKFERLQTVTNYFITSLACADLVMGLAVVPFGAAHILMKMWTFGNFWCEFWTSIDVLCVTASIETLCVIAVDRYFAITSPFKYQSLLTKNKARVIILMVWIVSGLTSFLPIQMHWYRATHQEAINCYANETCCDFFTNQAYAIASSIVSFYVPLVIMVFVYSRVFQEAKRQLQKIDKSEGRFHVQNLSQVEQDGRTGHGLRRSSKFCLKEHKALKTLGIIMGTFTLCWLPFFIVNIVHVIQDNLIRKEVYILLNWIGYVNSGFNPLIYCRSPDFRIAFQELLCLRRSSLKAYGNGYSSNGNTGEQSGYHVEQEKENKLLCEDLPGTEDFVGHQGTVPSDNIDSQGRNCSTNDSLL

Consider `CC1=C(C(=O)Nc2ccc(C(=O)N3CCN(c4ccccc4F)CC3)cc2)SCCO1`, for which, in [1], the EC50 is 3.01 µM (active).
For `Cc1cc(C)cc(-n2c(C)cc(/C=C3\C(=N)N4N=C(CC(C)C)SC4=NC3=O)c2C)c1`, the EC50 in experiment [2] is 4.57 µM (active); in experiment [3] it was > 50 µM (not active); in [4], 9.46 µM (active); in [8], 6.77 µM (active). Besides, the concentration at half-maximal activity (AC50) in experiment [5] was 2.82 µM (active). Also, the figures for the IC50 in experiment [6] and in experiment [7] were 3.65 µM (active) and 2.3 µM (active), respectively.
`Cc1oc(-c2ccccc2)nc1CSCC(=O)NC1CC1`: in experiment [9], the IC50 is > 80 µM (inactive).
Consider `O=C(O)c1c2c(nc3ccccc13)/C(=C/c1ccc(O)cc1)CC2`, for which the results for the half-maximal inhibitory concentration (IC50) in [10], in experiment [11] and in [12] were 3.85 µM (active), 18.4 µM (active) and 124 µM (active), respectively. Besides, the EC50 in experiment [13] is 33.3 µM (inactive). Besides, the AC50 was 1.93 µM (active) in experiment [14]; 2 µM (active) in [15]; 9.03 µM (active) in experiment [16]; 6.42 µM (active) in experiment [17]; 6.44 µM (active) in [18].

For the origin of these results see ChEMBL document CHEMBL1201862, “PubChem BioAssay data set” (2004).
